Results reported in patent US7625895B2, “Diphenyl-dihydro-imidazopyridinones” (Hoffmann-Le Roche Inc., priority 2007, dated 2009).

biological target: interaction between p53 and MDM2 proteins (recombinant GST-tagged MDM2 / p53-peptide) (Homo sapiens, UniProt Q00987); assay: HTRF assay of inhibition of the p53-MDM2 interaction (GST-MDM2 binding to biotinylated p53 peptide); details: 90 nM biotinylated p53 peptide, 160 ng/ml GST-MDM2, 37° C. 1 h
Description: The ability of the compounds to inhibit the interaction between p53 and MDM2 proteins was measured by an HTRF (homogeneous time-resolved fluorescence) assay in which recombinant GST-tagged MDM2 binds to a peptide that resembles the MDM2-interacting region of p53 (Lane et al.). Binding of GST-MDM2 protein and p53-peptide (biotinylated on its N-terminal end) is registered by the FRET (fluorescence resonance energy transfer) between Europium (Eu)-labeled anti-GST antibody and streptavidin-conjugated Allophycocyanin (APC).
Test is performed in black flat-bottom 384-well plates (Costar) in a total volume of […] containing: 90 nM biotinylated peptide, 160 ng/ml GST-MDM2, 20 nM streptavidin-APC (PerkinElmerWallac), 2 nM Eu-labeled anti-GST-antibody (PerkinElmerWallac) 0.2% bovine serum albumin (BSA), 1 mM dithiothreitol (DTT) and 20 mM […] (TBS) buffer as follows: Add 10 μL of GST-MDM2 (640 ng/ml working solution) in reaction buffer to each well. Add 10 μL diluted compounds (1:5 dilution in reaction buffer) to each well mix by shaking. Add 20 μL biotinylated p53 peptide (180 nM working solution) in reaction buffer to each well and mix on shaker. Incubate at 37° C. for 1 h. Add 20 μL streptavidin-APC and Eu-anti-GST antibody mixture (6 nM Eu-anti-GST and 60 nM streptavidin-APC working solution) in TBS buffer with 0.2% BSA, shake at room temperature for 30 minutes and read using a TRF-capable plate reader at 665 and 615 nm (Victor 5, Perkin ElmerWallac). If not specified, the reagents were purchased from Sigma Chemical Co.

Chain of interaction between p53 and MDM2 proteins (recombinant GST-tagged MDM2 / p53-peptide) (Q00987 whole entry): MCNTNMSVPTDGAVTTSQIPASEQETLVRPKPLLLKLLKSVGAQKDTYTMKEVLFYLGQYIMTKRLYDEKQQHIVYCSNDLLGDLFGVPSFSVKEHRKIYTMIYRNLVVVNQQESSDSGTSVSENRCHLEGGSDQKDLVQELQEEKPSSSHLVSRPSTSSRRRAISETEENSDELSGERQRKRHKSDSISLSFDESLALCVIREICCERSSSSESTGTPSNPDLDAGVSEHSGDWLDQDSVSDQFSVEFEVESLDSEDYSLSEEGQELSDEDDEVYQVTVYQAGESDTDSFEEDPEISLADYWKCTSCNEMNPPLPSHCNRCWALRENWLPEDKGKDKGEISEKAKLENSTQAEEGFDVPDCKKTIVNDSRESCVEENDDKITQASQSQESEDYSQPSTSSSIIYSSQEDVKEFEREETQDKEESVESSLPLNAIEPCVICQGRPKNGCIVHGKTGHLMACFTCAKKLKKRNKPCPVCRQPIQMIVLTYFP

IC50	Compound
710 nM	O=c1cccc2n1[C@@H](c1ccc(Cl)cc1)[C@@H](c1ccc(Cl)cc1)N2S(=O)(=O)c1ccsc1 (racemic) [Example 10, rac-cis-2,3-Bis-(4-chloro-phenyl)-1-(thiophene-3-sulfonyl)-2,3-dihydro-1H-imidazo[1,2-a]pyridin-5-one]
710 nM	O=C(CN1CCN(C(=O)c2ccc3n(c2=O)[C@@H](c2ccc(Cl)cc2)[C@@H](c2ccc(Cl)cc2)N3S(=O)(=O)c2ccccc2F)CC1)N1CCOCC1 (racemic) [Example 51, rac-cis-2,3-Bis-(4-chloro-phenyl)-1-(2-fluoro-benzenesulfonyl)-6-[4-(2-morpholin-4-yl-2-oxo-ethyl)-piperazine-1-carbonyl]-2,3-dihydro-1H-imidazo[1,2-a]pyridin-5-one]
470 nM	COC(=O)c1cccc(S(=O)(=O)N2c3ccc(C(=O)N4CCN(CC(=O)N5CCOCC5)CC4)c(=O)n3[C@@H](c3ccc(Cl)cc3)[C@H]2c2ccc(Cl)cc2)c1 (racemic) [Example 62, rac-3-{cis-2,3-Bis-(4-chloro-phenyl)-6-[4-(2-morpholin-4-yl-2-oxo-ethyl)-piperazine-1-carbonyl]-5-oxo-2,3-dihydro-5H-imidazo[1,2-a]pyridine-1-sulfonyl}-benzoic acid methyl ester]
460 nM	COC(=O)c1cccc(S(=O)(=O)N2c3ccc(C(=O)N4CCN(C)CC4)c(=O)n3[C@@H](c3ccc(Cl)cc3)[C@H]2c2ccc(Cl)cc2)c1 (racemic) [Example 63, rac-3-[cis-2,3-Bis-(4-chloro-phenyl)-6-(4-methyl-piperazine-1-carbonyl)-5-oxo-2,3-dihydro-5H-imidazo[1,2-a]pyridine-1-sulfonyl]-benzoic acid methyl ester]
670 nM	COC(=O)c1cccc(S(=O)(=O)N2c3ccc(C(=O)N4CCN(CCn5ccnc5)CC4)c(=O)n3[C@@H](c3ccc(Cl)cc3)[C@H]2c2ccc(Cl)cc2)c1 (racemic) [Example 66, rac-3-{cis-2,3-Bis-(4-chloro-phenyl)-6-[4-(2-imidazol-1-yl-ethyl)-piperazine-1-carbonyl]-5-oxo-2,3-dihydro-5H-imidazo[1,2-a]pyridine-1-sulfonyl}-benzoic acid methyl ester]
770 nM	O=C(O)c1cccc(S(=O)(=O)N2c3cccc(=O)n3[C@@H](c3ccc(Cl)cc3)[C@H]2c2ccc(Cl)cc2)c1 (racemic) [Example 82, rac-3-[cis-2,3-Bis-(4-chloro-phenyl)-5-oxo-2,3-dihydro-5H-imidazo[1,2-a]pyridine-1-sulfonyl]-benzoic acid]
500 nM	N#Cc1cc(S(=O)(=O)N2c3cccc(=O)n3[C@@H](c3ccc(Cl)cc3)[C@H]2c2ccc(Cl)cc2)ccc1F (single isomer, unassigned) [Example 84, 5-[(2R*,3S*)-2,3-Bis-(4-chloro-phenyl)-5-oxo-2,3-dihydro-5H-imidazo[1,2-a]pyridine-1-sulfonyl]-2-fluoro-benzonitrile]
220 nM	N#Cc1cc(S(=O)(=O)N2c3cccc(=O)n3[C@@H](c3ccc(Cl)cc3)[C@H]2c2ccc(Cl)cc2)ccc1F (single isomer, unassigned) [Example 85, 5-[(2R*,3S*)-2,3-Bis-(4-chloro-phenyl)-5-oxo-2,3-dihydro-5H-imidazo[1,2-a]pyridine-1-sulfonyl]-2-fluoro-benzonitrile]
1600 nM	N#Cc1cccc(S(=O)(=O)N2c3ccc(C(=O)N4CCOCC4)c(=O)n3[C@@H](c3ccc(Cl)cc3)[C@H]2c2ccc(Cl)cc2)c1 (single isomer, unassigned) [Example 91, 3-[2R*,3S*-bis-(4-chloro-phenyl)-6-(morpholine-4-carbonyl)-5-oxo-2,3-dihydro-5H-imidazo[1,2-a]pyridine-1-sulfonyl]-benzonitrile]
690 nM	N#Cc1cccc(S(=O)(=O)N2c3ccc(C(=O)N4CCOCC4)c(=O)n3[C@H](c3ccc(Cl)cc3)[C@@H]2c2ccc(Cl)cc2)c1 (single isomer, unassigned) [Example 92, 3-[2R*,3S*-bis-(4-chloro-phenyl)-6-morpholine-4-carbonyl)-5-oxo-2,3-dihydro-5H-imidazo[1,2-a]pyridine-1-sulfonyl]-benzonitrile]
